Assay results: US20250188410A1, “NICOTINAMIDE ADENINE DINUCLEOTIDE (NAD+) PRECURSORS, NAD PATHWAY SUBSTRATES COMPOSITIONS AND USES THEREOF” (Colossal Biosciences Inc., priority 2023, published 2025)
Several values for one entry are separate records, joined by “and”; a condition that tells them apart may be missing. Equal values may be shown once.

Tests used:
[1] = test system: bovine embryos; assay: Attachment rate of embryos at day 11 of culture on MEFs in bEPSCM (Experiment 2); type: cell-based
[2] = test system: bovine embryos; assay: Presumptive bESC colonies at day 25 by Alkaline Phosphatase staining (bESC derivation); type: cell-based; conditions: for number of presumptive bESC colonies (increase): IVF and PA groups, supplementation during the first seven days; for number of presumptive bESC colonies (increase) / # colonies per cm^2 / Average (# colonies per cm^2) / Fold vs Control (presumptive bESC colonies): day 25; for # colonies per cm^2 / Average (# colonies per cm^2) / Fold vs Control (presumptive bESC colonies) / Number of AP+ Colonies: IVF; for Number of AP+ Colonies: day 25, 12 well plate
Description: (§1) After identifying the NAD^+ precursor dosage, experiment 2 was performed. Embryos were cultured in in vitro culture medium (BO-IVC; IVF Biosciences) supplemented with NA or NMN for 7-14 days in air controlled atmosphere (5% CO2 and 5% O2) at 38.5° C. Embryos cultured with NAD^+ precursor were collected at the blastocyst stage (D7) and plated in co-culture with irradiated mouse embryonic fibroblast (MEF) and bovine ESCs medium ([…]) until day 25 for bovine ESCs Derivation: Timeline bESC Derivation: • D0-D7 Incubation of IVF-produced embryos in IVC supplemented with NAD^+ precursor for seven days. • D7 Plating of embryos for ESC derivation on medium […] on Cf1 MEF. Treatment with Y27632 for last 12 hours of culturing. • D14 Mechanically isolate the ICM and transfer to a new plate. […] NMN and Nicotinic Acid (NA, also known as Niacin) were used as the NAD^+ precursors in this experiment. On day 7 of supplementation, blastocysts were collected and plated on MEFs in a […] medium.

[3] = test system: bovine embryos; assay: Measurement of ICM and outgrowths for day 14 embryos before ICM isolation; type: cell-based; conditions: IVF embryos
Description: as §1

[4] = test system: bovine embryos; assay: Presumptive bESC colonies at day 25 by Alkaline Phosphatase staining (bESC derivation); type: cell-based; conditions: PA, replicate 1, 5 seed embryos; for # colonies per cm^2 / Average (# colonies per cm^2) / Fold vs Control (presumptive bESC colonies): day 25; for Number of AP+ Colonies: day 25, 12 well plate
[5] = test system: bovine embryos; assay: Measurement of ICM and outgrowths for day 14 embryos before ICM isolation; type: cell-based; conditions: PA embryos
[6] = test system: bovine embryos; assay: Early embryo development of bovine embryos in IVC medium supplemented with NAD+ precursor (Experiment 1); type: cell-based
Description: The NAD^+ precursors […] (NMN) or Nicotinic acid […] (NA) (SG; Sigma N7764) were supplemented into in vitro culture medium (BO-IVC; IVF Biosciences), and bovine embryos obtained by in vitro fertilization (IVF) or parthenogenetic activation (PA) were cultured for 7-14 days in air controlled atmosphere (5% CO2 and 5% O2) at 38.5° C. Embryo development was evaluated at day 3 (D3-cleavage rate), day 7 (D7−Blastocyst rate), and day 11 (D11−Hatching rate). In addition, the expansion of hatched blastocysts from day 11-13 was evaluated. Based on this testing (see in Experiment 1 below) suitable dosages of NAD^+ precursors were identified.
Different doses of NMN (125 to 1000 μM) were added to the IVC culture medium containing bovine embryos for up to 14 days. No effect of NAD^+ precursor presence was observed on the cleavage or blastocyst rates for all three replicates (see FIG. 1, FIG. 2A, FIG. 2B, and FIG. 3).

[7] = IVM or embryo culture media supplemented with NMN; cited from earlier work

SMILES | % Attached ([1]; IVF embryos) | Fold vs Control (attachment rate) ([1]; IVF embryos) | % Attached ([1]; PA embryos) | Fold vs Control (attachment rate) ([1]; PA embryos) | number of presumptive bESC colonies (increase) [2] | # colonies per cm^2 ([2]; replicate 1, 1 seed embryo) | Average (# colonies per cm^2) ([2]; replicate 1, 1 seed embryo) | Fold vs Control (presumptive bESC colonies) ([2]; replicate 1, 1 seed embryo) | Number of AP+ Colonies ([2]; replicate 1, 1 seed embryo) | # colonies per cm^2 ([2]; replicate 2, 5 seed embryos) | Average (# colonies per cm^2) ([2]; replicate 2, 5 seed embryos) | Fold vs Control (presumptive bESC colonies) ([2]; replicate 2, 5 seed embryos) | Number of AP+ Colonies ([2]; replicate 2, 5 seed embryos) | AVG Fold (ICM/outgrowth) [3] | AVG ICM [3] | AVG Outgrowth [3] | # colonies per cm^2 [4] | Average (# colonies per cm^2) [4] | Fold vs Control (presumptive bESC colonies) [4] | Number of AP+ Colonies [4] | further results
O=C(O)c1cccnc1 [NA, nicotinic acid (pyridine-3-carboxylic acid), reference compound] | 100% | 1.33 | 60% | 3 | increased by three times | 82 and 72.29 and 8 | 54.1 | 2.958 | 287 and 253 and 28 | 33.43 | 33.43 | 3.25 | 117 | 0.09417 | 76.27 μm | 905.9 μm | 15.14 | 15.14 | 2.944 | 53 | AVG Fold (ICM/outgrowth) [5]: 0.1303; AVG ICM [5]: 48.9 μm; AVG Outgrowth [5]: 436.7 μm
NC(=O)c1ccc[n+]([C@@H]2O[C@H](COP(=O)([O-])O)[C@@H](O)[C@H]2O)c1 [NMN, nicotinamide mononucleotide] | 100% | 1.33 | 60% | 3 | increased by three times | 11.14 and 16.29 and 10.86 | 12.76 | 0.6979 | 39 and 57 and 38 | 16.29 | 16.29 | 1.583 | 57 | 0.1124 | 58.38 μm | 645.2 μm | 12 | 12 | 2.333 | 42 | cleavage rate ([6]; NMN 125 to 1000 μM in IVC culture medium, day 3, three replicates): No effect; blastocyst rate ([6]; NMN 125 to 1000 μM in IVC culture medium, day 7, three replicates): No effect; morphology of hatched blastocysts ([6]; supplementation in IVC, day 11 to day 13): beneficially impact; maturation or embryo development [7]: no effect; AVG Fold (ICM/outgrowth) [5]: 0.1845; AVG ICM [5]: 47.2 μm; AVG Outgrowth [5]: 458.5 μm
